Consider one compound from patent US20260376293A1, “METHODS FOR STUDYING GPR158 PHARMACOLOGY AND IDENTIFICATION OF ITS LIGANDS” (UNIVERSITY OF FLORIDA RESEARCH FOUNDATION, INCORPORATED, priority 2022, published 2026).

The assay concerns layer V pyramidal neurons. Kind of assay: Whole cell recordings, layer V prelimbic cortex neurons, WT mice. It counts as cell-based, mouse. Particulars: glycine 1 mM. As to the method: FIGS. 15A-15H. Effect of glycine and taurine on excitability of layer V neurons and membrane properties of layer II/III neurons in wild type and GPR158 knockout mice. A) Representative traces of voltage responses to a 200 pA current ramp injection obtained from layer V pyramidal neurons in WT mice under control conditions and during bath application of glycine (1 mM). B) Quantification of glycine effects on neuronal excitability by number of action potentials fired in response to 200 pA current ramp under control condition and glycine application (n=4 neurons/3 mice). Nonparametric t-test; Wilcoxon test, ns=p>0.05. C) Quantification of glycine effects on neuronal excitability by rheobase current under control condition and glycine application (n=4 neurons/3 mice). Nonparametric t-test; Wilcoxon test, ns=p>0.05. […]
Electrophysiological recordings from layer II-III and layer V neurons of the prelimbic cortex were performed with C57Bl6 mice of either sex aged between 6-12 weeks. […] The Rheobase current was defined as the minimum current necessary to elicit the first AP and changes in neuronal excitability were assessed by counting the number of spikes evoked in response to 1-s depolarizing ramp ranging from 0 to 200 pA with a 20-s intertrial interval. […]

On to `NCC(=O)O` [glycine], for which the “intrinsic excitability of layer V neurons” value is recorded as “did not produce any changes”. For the same compound, the resting membrane potential result (layer V) is “ns”.
